Columns and labels:
[1] = test system: MDCK (Madin–Darby canine kidney) cells; assay: MTT toxicity evaluation, MDCK; type: cell-based; settings: Canis lupus familiaris, MDCK, 72 h treatment, non-tumor cells, read-out: Half Maximal Inhibitory Concentration (IC50) MDCK
Protocol: (§1) The cytotoxicity of hederagenin derivatives in vitro was evaluated on three tumor cell lines (A549: human non-small-cell lung cancer; MCF-7: human mammary cancer; HepG2: human hepatocellular carcinoma) using the 3-(4,5-dimethylthiazol-2-yl)-2,5-diphenyltetrazolium bromide (MTT) assay. In addition, their toxicity evaluations were tested on H9c2 (murine heart myoblast) and MDCK (Madin–Darby canine kidney) cells. MCF-7, A549, HepG2, H9c2, and MDCK cells were obtained from the Chinese Academy of Medical Sciences and Peking Union Medical College. All of the cell lines were maintained in Dulbecco’s modified Eagle medium (DMEM) supplemented with 1% (v/v) penicillin/streptomycin and 10% (v/v) fetal bovine serum (FBS; Thermo Technologies, New York, NY, USA) under a humidified atmosphere containing 5% CO2 at 37 °C. The stock solutions of He derivatives were dissolved in dimethyl sulfoxide (DMSO; Sigma, St. Louis, MO, USA) and added at various concentrations to the cell culture. Cellular morphologies were observed using an inverted fluorescence microscope (Olympus IX71, Tokyo, Japan), a plate reader (BIORAD 550 spectrophotometer, Bio-rad Life Science Development Ltd., Beijing, China), and a Canton 2 flow cytometer (BD, New York, NY, USA). The antitumor activity of these compounds were evaluated on MCF-7, A549, HepG2, MDCK, and H9c2 cell lines using the MTT assay. Cells at a density of 3 × 10^3 cells/well were plated in a 96-multiwell plate in DMEM containing 10% FBS for 24 h at 37 °C with 5% CO2. Then, cells were treated for 72 h with the required concentrations (3.125, 6.25, 12.5, 25, or 50 μM) of the compounds and reference drugs (He and DDP) dissolved with the vehicle DMSO. After that, the culture substrate was replaced with 200 μL of DMEM containing 20 μL of MTT solution at 5 mg/mL and incubated for 4 h. The supernatant was removed and the dissolved formazans precipitated with 120 μL of DMSO. Wells without drugs were used as blanks. A plate reader was used to determine the absorbance at 490 nm. The above steps were repeated three times. The IC50 values were defined as the concentration of the compound which gave 50% growth inhibition, and they were calculated using Graph Pad Prism 5. The inhibition rate was calculated using the following formula, where OD is the optical density:% inhibition = 1 − (Sample group OD/Control group OD) × 100%. (1)

[2] = test system: H9c2 (murine heart myoblast); assay: MTT toxicity evaluation, H9c2; type: cell-based; settings: H9c2, 72 h treatment, non-tumor cells, read-out: Half Maximal Inhibitory Concentration (IC50) H9c2
Protocol: as §1

[3] = test system: A549 (human non-small-cell lung cancer); assay: MTT cytotoxicity assay, A549; type: cell-based; settings: Homo sapiens, A549, 72 h treatment, read-out: Half Maximal Inhibitory Concentration (IC50) A549
Protocol: as §1

[4] = test system: HepG2 (human hepatocellular carcinoma); assay: MTT cytotoxicity assay, HepG2; type: cell-based; settings: Homo sapiens, HepG2; MTT, 72 h treatment; read-out: Half Maximal Inhibitory Concentration (IC50) HepG2
Protocol: as §1

[5] = test system: MCF-7 (human mammary cancer); assay: MTT cytotoxicity assay, MCF-7; type: cell-based; settings: Homo sapiens, MCF7, 72 h treatment, read-out: Half Maximal Inhibitory Concentration (IC50) MCF-7
Protocol: as §1

SMILES	melting point [°C]	IC50 [1] [µM]	IC50 [2] [µM]	IC50 [3] [µM]	IC50 [4] [µM]	IC50 [5] [µM]
Cc1nc(C)c(C(=O)OCCCCOC(=O)[C@]23CCC(C)(C)CC2C2=CCC4[C@@]5(C)CC[C@H](O)[C@@](C)(CO)C5CC[C@@]4(C)[C@]2(C)CC3)nc1C (stereo partly drawn) [Compound 19, 4-(((4aS,6aS,6bR,9R,10S,12aR)-10-Hydroxy-9-(hydroxymethyl)-2,2,6a,6b,9,12a-hexamethyl-1,2,3,4,4a,5,6,6a,6b,7,8,8a,9,10,11,12,12a,12b,13,14b-icosahydropicene-4a-carbonyl)oxy)butyl-3,5,6-trimethylpyrazine-2-carboxylate]	110.1	16.43 ± 0.04	16.5 ± 0.22	12.2 ± 0.4	9.06 ± 0.32	27.6 ± 0.52
Cc1nc(C)c(C(=O)OC[C@@]2(C)C3CC[C@]4(C)C(CC=C5C6CC(C)(C)CC[C@]6(C(=O)OCCCCCl)CC[C@]54C)[C@@]3(C)CC[C@@H]2O)nc1C (stereo partly drawn) [Compound 26, ((3S,4R,6aR,6bS,8aS,14bR)-8a-((4-Chlorobutoxy)carbonyl)-3-hydroxy-4,6a,6b,11,11,14b-hexamethyl-1,2,3,4,4a,5,6,6a,6b,7,8,8a,9,10,11,12,12a,14,14a,14b-icosahydropicen-4-yl)methyl 3,5,6-trimethylpyrazine-2-carboxylate]	168.1	> 30	> 30	> 30	7.15 ± 0.85	18.3 ± 1.16
